Results as given in US20240398784A1, “C-LINKED ISOQUINOLINE AMIDES AS LRRK2 INHIBITORS, PHARMACEUTICAL COMPOSITIONS, AND USES THEREOF” (Merck Sharp & Dohme LLC, priority 2021, published 2024).

The molecules below were run against LRRK2 G2019S (Homo sapiens, UniProt Q5S007, G2019S) (assay: LRRK2 G2019S Km ATP LanthaScreen assay). Settings: read-out: LRRK2 pIC50 (converted).
Format: biochemical

LRRK2 G2019S, sequence (Q5S007 whole entry G2019S): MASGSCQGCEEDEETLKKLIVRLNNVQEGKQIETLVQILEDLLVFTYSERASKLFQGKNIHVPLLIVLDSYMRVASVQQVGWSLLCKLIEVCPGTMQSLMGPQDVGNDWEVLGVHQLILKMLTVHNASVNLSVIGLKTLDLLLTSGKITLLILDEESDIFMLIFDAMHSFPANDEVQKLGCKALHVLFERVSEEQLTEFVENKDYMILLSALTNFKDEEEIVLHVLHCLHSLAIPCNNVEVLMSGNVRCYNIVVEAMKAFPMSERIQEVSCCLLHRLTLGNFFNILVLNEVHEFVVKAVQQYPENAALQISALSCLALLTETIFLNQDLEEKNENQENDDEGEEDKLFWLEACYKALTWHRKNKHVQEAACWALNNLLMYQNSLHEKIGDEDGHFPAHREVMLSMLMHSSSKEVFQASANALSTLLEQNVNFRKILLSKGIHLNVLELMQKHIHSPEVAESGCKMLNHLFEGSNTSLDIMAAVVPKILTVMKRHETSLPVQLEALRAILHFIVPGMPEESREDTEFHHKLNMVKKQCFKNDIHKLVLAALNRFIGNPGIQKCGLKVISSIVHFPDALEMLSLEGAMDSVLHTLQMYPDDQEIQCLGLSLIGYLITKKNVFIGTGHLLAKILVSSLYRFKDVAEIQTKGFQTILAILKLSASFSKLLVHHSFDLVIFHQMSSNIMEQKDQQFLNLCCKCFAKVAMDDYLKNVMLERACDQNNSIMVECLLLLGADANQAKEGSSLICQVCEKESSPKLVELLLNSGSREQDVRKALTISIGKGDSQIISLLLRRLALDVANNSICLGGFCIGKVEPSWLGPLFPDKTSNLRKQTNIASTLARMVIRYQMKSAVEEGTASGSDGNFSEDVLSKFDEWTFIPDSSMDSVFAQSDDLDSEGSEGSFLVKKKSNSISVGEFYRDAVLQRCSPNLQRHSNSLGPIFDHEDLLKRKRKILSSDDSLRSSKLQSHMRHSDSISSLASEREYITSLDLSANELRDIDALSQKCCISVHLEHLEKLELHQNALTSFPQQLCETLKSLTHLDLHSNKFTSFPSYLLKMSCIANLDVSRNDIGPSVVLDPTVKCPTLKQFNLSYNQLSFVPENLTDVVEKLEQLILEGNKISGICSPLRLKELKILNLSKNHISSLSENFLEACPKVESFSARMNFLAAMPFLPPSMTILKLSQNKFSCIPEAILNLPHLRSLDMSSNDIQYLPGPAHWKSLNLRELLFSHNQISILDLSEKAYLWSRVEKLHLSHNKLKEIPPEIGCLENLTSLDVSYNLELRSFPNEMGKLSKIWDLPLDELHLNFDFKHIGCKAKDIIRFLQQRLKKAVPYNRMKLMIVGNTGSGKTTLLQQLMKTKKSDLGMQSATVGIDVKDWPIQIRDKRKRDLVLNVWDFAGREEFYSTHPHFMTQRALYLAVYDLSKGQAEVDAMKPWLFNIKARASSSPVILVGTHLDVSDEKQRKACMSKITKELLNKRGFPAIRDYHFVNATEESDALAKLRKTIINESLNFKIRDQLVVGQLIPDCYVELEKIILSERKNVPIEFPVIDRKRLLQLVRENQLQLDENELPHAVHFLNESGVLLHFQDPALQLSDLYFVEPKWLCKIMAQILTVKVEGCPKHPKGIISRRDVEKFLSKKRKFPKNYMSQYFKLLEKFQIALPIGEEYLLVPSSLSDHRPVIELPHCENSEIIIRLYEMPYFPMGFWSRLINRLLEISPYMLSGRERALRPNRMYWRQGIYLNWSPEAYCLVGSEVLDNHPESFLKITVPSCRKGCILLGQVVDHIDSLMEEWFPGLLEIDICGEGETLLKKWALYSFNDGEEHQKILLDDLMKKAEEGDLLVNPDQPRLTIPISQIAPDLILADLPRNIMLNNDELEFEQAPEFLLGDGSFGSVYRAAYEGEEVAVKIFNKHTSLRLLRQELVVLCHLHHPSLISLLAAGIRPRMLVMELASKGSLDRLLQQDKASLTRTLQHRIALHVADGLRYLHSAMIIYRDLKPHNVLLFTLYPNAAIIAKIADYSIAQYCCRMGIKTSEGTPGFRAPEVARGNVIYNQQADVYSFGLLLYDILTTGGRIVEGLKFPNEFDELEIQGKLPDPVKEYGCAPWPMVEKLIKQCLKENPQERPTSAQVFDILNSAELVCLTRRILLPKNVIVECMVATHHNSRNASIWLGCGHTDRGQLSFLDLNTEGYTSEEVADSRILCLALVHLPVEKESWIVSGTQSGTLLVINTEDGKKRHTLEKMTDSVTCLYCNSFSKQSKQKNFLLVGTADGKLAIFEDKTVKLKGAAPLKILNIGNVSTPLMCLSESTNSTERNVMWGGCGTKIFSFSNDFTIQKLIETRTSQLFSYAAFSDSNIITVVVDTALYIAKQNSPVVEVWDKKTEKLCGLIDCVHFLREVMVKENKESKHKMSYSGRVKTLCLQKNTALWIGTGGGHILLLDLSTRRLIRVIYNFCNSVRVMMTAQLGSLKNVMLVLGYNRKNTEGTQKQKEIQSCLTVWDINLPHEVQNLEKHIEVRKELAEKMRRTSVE

Compound	IC50 [nM]
CC1(C)CC(C(=O)Nc2cc3cc(C4(C#N)CC45CC5)ccc3cn2)CC(C)(C)O1 (single isomer, unassigned) [Ex-1.27, N-(6-((R or S)-1-cyanospiro[2.2]pentan-1-yl)isoquinolin-3-yl)-2,2,6,6-tetramethyltetrahydro-2H-pyran-4-carboxamide]	9.77
CC1(C)CC1C(=O)Nc1cc2cc(C3CCN(C4(C)COCC4O)CC3)c(Cl)cc2cn1 (stereo not drawn) [Ex-2.12]	0.355
N#CC1(c2ccc3cnc(NC(=O)Cc4cccnc4)cc3c2)CC12CC2 (single isomer, unassigned) [Ex-1.41, (R or S)-N-(6-(1-cyanospiro[2.2]pentan-1-yl)isoquinolin-3-yl)-2-(pyridin-3-yl)acetamide]	0.708
CC1(N2CCC(c3cc4cc(NC(=O)C5CC5F)ncc4cc3Cl)CC2)COCC1O (stereo not drawn) [Ex-3.4]	1.55
CC(C(=O)Nc1cc2cc(C3(C#N)CC34CC4)ccc2cn1)c1cnn(C)c1 (stereo not drawn) [Ex-2.108]	2.95
N#CC1(c2ccc3cnc(NC(=O)C4CC45CCOC5)cc3c2)CC12CC2 (stereo not drawn) [Ex-2.65]	25.7
CC1(N2CCC(c3cc4cc(NC(=O)C5CC56CC6)ncc4cc3Cl)CC2)COCC1O (single isomer, unassigned) [Ex-4.6, N-(7-chloro-6-(1-(4-hydroxy-3-methyltetrahydrofuran-3-yl)piperidin-4-yl)isoquinolin-3-yl)spiro[2.2]pentane-1-carboxamide]	0.148
CC(C)(F)C1CC1C(=O)Nc1cc2cc(C3CCN(C4(C)COCC4O)CC3)c(Cl)cc2cn1 (single isomer, unassigned) [Ex-4.48, N-(7-chloro-6-(1-(4-hydroxy-3-methyltetrahydrofuran-3-yl)piperidin-4-yl)isoquinolin-3-yl)-2-(2-fluoropropan-2-yl)cyclopropane-1-carboxamide]	1.26
COC1CC(C(=O)Nc2cc3cc(C4(C#N)CC45CC5)ccc3cn2)C1 (single isomer, unassigned) [Ex-1.3, (1R,3R or 1S,3S)-N-(6-((R or S)-1-cyanospiro[2.2]pentan-1-yl)isoquinolin-3-yl)-3-methoxycyclobutane-1-carboxamide]	0.631
CC1C(C(=O)Nc2cc3cc(C4CCN(C5(C)COCC5O)CC4)c(Cl)cc3cn2)C12CCOCC2 (single isomer, unassigned) [Ex-10.6, N-(7-chloro-6-(1-(4-hydroxy-3-methyltetrahydrofuran-3-yl)piperidin-4-yl)isoquinolin-3-yl)-2-methyl-6-oxaspiro[2.5]octane-1-carboxamide]	11
Cn1cc(C(=O)Nc2cc3cc(C4CCN([C@]5(C)COC[C@@H]5O)CC4)c(Cl)cc3cn2)cn1 (single isomer, unassigned) [Ex-12.6, N-(7-chloro-6-(1-(4-hydroxy-3-methyltetrahydrofuran-3-yl)piperidin-4-yl)isoquinolin-3-yl)-1-methyl-1H-pyrazole-4-carboxamide]	0.776
N#CC1(c2cc3cc(NC(=O)C4CC4c4ccccn4)ncc3cc2F)CC12CC2 (single isomer, unassigned) [Ex-18.14, (1R,2R or 1S,2S)-N-(6-((R or S)-1-cyanospiro[2.2]pentan-1-yl)-7-fluoroisoquinolin-3-yl)-2-(pyridin-2-yl)cyclopropane-1-carboxamide]	60.3
CC1(C)CCC(C(=O)Nc2cc3cc(C4CCN(C5(C)COCC5O)CC4)c(Cl)cc3cn2)CO1 (single isomer, unassigned) [Ex-4.25, N-(7-chloro-6-(1-(4-hydroxy-3-methyltetrahydrofuran-3-yl)piperidin-4-yl)isoquinolin-3-yl)-6,6-dimethyltetrahydrofuran-2H-pyran-3-carboxamide]	0.776
CC1(C)CC(C(=O)Nc2cc3cc(C4CCC(N5CCC(F)C5)CC4)c(Cl)cc3cn2)CCO1 (single isomer, unassigned) [Ex-5.10, N-(7-chloro-6-(4-(3-fluoropyrrolidin-1-yl)cyclohexyl)isoquinolin-3-yl)-2,2-dimethyltetrahydro-2H-pyran-4-carboxamid]	3.02
CC1(N2CCC(c3cc4cc(NC(=O)C5CC(c6ccccn6)C5)ncc4cc3Cl)CC2)COCC1O (single isomer, unassigned) [Ex-4.76, N-(7-chloro-6-(1-(4-hydroxy-3-methyltetrahydrofuran-3-yl)piperidin-4-yl)isoquinolin-3-yl)-3-(pyridin-2-yl)cyclobutane-1-carboxamide]	41.7
CC1(N2CCC(c3cc4cc(NC(=O)C5CCC(C(F)(F)F)OC5)ncc4cc3Cl)CC2)COCC1O (stereo not drawn) [Ex-2.59]	5.13
CC1(C)CCC(C(=O)Nc2cc3cc(C4CCC(N5CCC(F)C5)CC4)c(Cl)cc3cn2)CO1 (single isomer, unassigned) [Ex-5.22, N-(7-chloro-6-(4-(3-fluoropyrrolidin-1-yl)cyclohexyl)isoquinolin-3-yl)-6,6-dimethyltetrahydro-2H-pyran-3-carboxamide]	6.17

Compound	IC50 [nM]
CC(C)(O)C1CC1C(=O)Nc1cc2cc(C3CCN(C4(C)COCC4O)CC3)c(Cl)cc2cn1 (single isomer, unassigned) [Ex-1.21, (1R,2R or 1S,2S)-N-(7-chloro-6-(1-((3R,4R or 3S,4S)-4-hydroxy-3-methyltetrahydrofuran-3-yl)piperidin-4-yl)isoquinolin-3-yl)-2-(2-hydroxypropan-2-yl)cyclopropane-1-carboxamide]	0.0912
CC1(N2CCC(c3cc4cc(NC(=O)C5CC5C(F)F)ncc4cc3Cl)CC2)COCC1O (single isomer, unassigned) [Ex-4.43, N-(7-chloro-6-(1-(4-hydroxy-3-methyltetrahydrofuran-3-yl)piperidin-4-yl)isoquinolin-3-yl)-2-(difluoromethyl)cyclopropane-1-carboxamide]	1.48
CC1(N2CCC(c3cc4cc(NC(=O)C5CCC5c5ccccn5)ncc4cc3Cl)CC2)COCC1O (single isomer, unassigned) [Ex-4.74, N-(7-chloro-6-(1-(4-hydroxy-3-methyltetrahydrofuran-3-yl)piperidin-4-yl)isoquinolin-3-yl)-2-(pyridin-2-yl)cyclobutane-1-carboxamide]	1780
C[C@@]1(N2CC[C@@H](c3cc4cc(NC(=O)[C@@H]5CC56CC6)ncc4cc3Cl)[C@H](F)C2)COC[C@@H]1O [Ex-23.2, (R)-N-(7-chloro-6-((3S,4S)-3-fluoro-1-((3R,4R)-4-hydroxy-3-methyltetrahydrofuran-3-yl)piperidin-4-yl)isoquinolin-3-yl)spiro[2.2]pentane-1-carboxamide]	0.0813
Cc1cc2cnc(NC(=O)C3CC3c3ccccn3)cc2cc1C1CCN(C2(C)COCC2F)CC1 (single isomer, unassigned) [Ex-13.3, (1R,2R or 1S,2S)-N-(6-(1-((3R,4R or 3S,4S)-4-fluoro-3-methyltetrahydrofuran-3-yl)piperidin-4-yl)-7-methylisoquinolin-3-yl)-2-(pyridin-2-yl)cyclopropane-1-carboxamide]	0.501
CC1(C)COCC1(C)N1CCC(c2cc3cc(NC(=O)C4CC45CCOCC5)ncc3cc2Cl)CC1 (single isomer, unassigned) [Ex-6.18, N-(7-chloro-6-(1-(3,4,4-trimethyltetrahydrofuran-3-yl)piperidin-4-yl)isoquinolin-3-yl)-6-oxaspiro[2.5]octane-1-carboxamide]	0.708
CC1C(C(=O)Nc2cc3cc(C4CCN(C5(C)COCC5O)CC4)c(Cl)cc3cn2)C12CCOCC2 (single isomer, unassigned) [Ex-10.7, N-(7-chloro-6-(1-(4-hydroxy-3-methyltetrahydrofuran-3-yl)piperidin-4-yl)isoquinolin-3-yl)-2-methyl-6-oxaspiro[2.5]octane-1-carboxamide]	44.7
CC1(N2CCC(c3cc4cc(NC(=O)C5CC56CCOCC6)ncc4cc3Cl)C(F)C2)COCC1O (single isomer, unassigned) [Ex-14.5, N-(7-chloro-6-(3-fluoro-1-(4-hydroxy-3-methyltetrahydrofuran-3-yl)piperidin-4-yl)isoquinolin-3-yl)-6-oxaspiro[2.5]octane-1-carboxamide]	1.58
CCC1C(C(=O)Nc2cc3cc(C4CCC(N5CC(F)C5)CC4)c(Cl)cc3cn2)C1c1cnn(C)c1 (single isomer, unassigned) [Ex-11.7, N-(7-chloro-6-(4-(3-fluoroazetidin-1-yl)cyclohexyl)isoquinolin-3-yl)-2-ethyl-3-(1-methyl-1H-pyrazol-4-yl)cyclopropane-1-carboxamide]	0.282
N#CC1(c2ccc3cnc(NC(=O)C4CC4c4ccccn4)cc3c2)CC12CC2 (stereo not drawn) [Ex-2.38]	2.04
O=C(Nc1cc2cc(C3CCN(C4COC4)CC3)c(Cl)cc2cn1)C1CC12CC2 (single isomer, unassigned) [Ex-9.2]	1.45
CC1(N2CCC(c3cc4cc(NC(=O)C5CC5c5cccs5)ncc4cc3Cl)CC2)COCC1O (single isomer, unassigned) [Ex-4.60, N-(7-chloro-6-(1-(4-hydroxy-3-methyltetrahydrofuran-3-yl)piperidin-4-yl)isoquinolin-3-yl)-2-(thiophen-2-yl)cyclopropane-1-carboxamide]	0.0813
Cc1cc2cnc(NC(=O)C3CC3c3ccccn3)cc2cc1C1CCN(C2(C)COCC2O)CC1 (single isomer, unassigned) [Ex-4.77, N-(6-(1-(4-hydroxy-3-methyltetrahydrofuran-3-yl)piperidin-4-yl)-7-methylisoquinolin-3-yl)-2-(pyridin-2-yl)cyclopropane-1-carboxamide]	5.62
CCOC1CC1C(=O)Nc1cc2cc(C3CCN(C4(C)COCC4O)CC3)c(Cl)cc2cn1 (stereo not drawn) [Ex-2.10]	1.15
CC1(N2CCC(c3cc4cc(NC(=O)C5CC5c5ccccn5)ncc4cc3Cl)CC2)CCOC1 (single isomer, unassigned) [Ex-6.32, N-(7-chloro-6-(1-(3-methyltetrahydrofuran-3-yl)piperidin-4-yl)isoquinolin-3-yl)-2-(pyridin-2-yl)cyclopropane-1-carboxamide]	5.62
Cc1cc2cnc(NC(=O)C3C4CCOCC43)cc2cc1C1CCN(C2(C)COCC2O)CC1 (stereo not drawn) [Ex-2.51]	0.759
